According to patent EP1534716B1, “HETEROBICYCLIC PYRAZOLE DERIVATIVES AS KINASE INHIBITORS” (priority 2002, dated 2004):

What was measured:
Type in all cases: biochemical
Aurora-2 = biological target: T1, Aurora-2 (Homo sapiens, UniProt O14965); test: Inhibition assay of Aurora-2 activity (SPA); conditions: 10 µM ATP, 60 minutes at room temperature
T1 sequence (O14965 1-403): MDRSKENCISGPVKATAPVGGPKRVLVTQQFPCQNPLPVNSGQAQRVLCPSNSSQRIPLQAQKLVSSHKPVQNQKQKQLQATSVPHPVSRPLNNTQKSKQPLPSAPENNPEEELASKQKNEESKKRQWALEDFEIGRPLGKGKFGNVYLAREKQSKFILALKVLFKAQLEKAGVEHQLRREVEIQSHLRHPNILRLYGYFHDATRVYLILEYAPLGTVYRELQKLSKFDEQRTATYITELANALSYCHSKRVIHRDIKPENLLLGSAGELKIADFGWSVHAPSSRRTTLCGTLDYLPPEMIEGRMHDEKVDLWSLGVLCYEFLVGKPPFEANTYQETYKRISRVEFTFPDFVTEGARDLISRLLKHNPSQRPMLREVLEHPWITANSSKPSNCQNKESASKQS
Protocol: (§1) The inhibiting activity of putative cdk/cyclin inhibitors and the potency of selected compounds is determined through a method of assay based on the use of the SPA technology (Amersham Pharmacia Biotech).
(§2) The assay consists of the transfer of radioactivity labelled phosphate moiety by the kinase to a biotinylated substrate. The resulting 33P-labelled biotinylated product is allowed to bind to streptavidin-coated SPA beads (biotin capacity 130 pmol/mg), and light emitted was measured in a scintillation counter.
(§3) Experimental data were analyzed by the computer program GraphPad Prizm using the four parameter logistic equation: [formula] where x is the logarithm of the inhibitor concentration, y is the response; y starts at bottom and goes to top with a sigmoid shape.
Inhibition assay of Aurora-2 activity
After 60 minutes at room temperature incubation, reaction was stopped and biotinylated peptide captured by adding 100 µl of bead suspension.
Stratification: 100 µl of CsC12 5 M were added to each well and let stand 4 hour before radioactivity was counted in the Top-Count instrument.
IC50 determination: see above

cdk2/Cyclin A = cdk2/Cyclin A (Homo sapiens, UniProt P24941); test: Inhibition assay of cdk2/Cyclin A activity (SPA); conditions: 10 µM ATP, 60 min at room temperature
Protocol: as §1, §2
Inhibition assay of cdk2/Cyclin A activity
Kinase reaction: 4 µM in house biotinylated histone H1 (Sigma # H-5505) substrate, 10 µM ATP (0.1 microCi P^33γ-ATP), 1.1 nM Cyclin A/CDK2 complex, inhibitor in a final volume of 30 µl buffer (TRIS HCl 10 mM pH 7.5, MgCl2 10 mM, DTT 7.5 mM + 0.2 mg/ml BSA) were added to each well of a 96 U bottom. After incubation for 60 min at room temperature, the reaction was stopped by addition of 100 µl PBS buffer containing 32 mM EDTA, 500 µM cold ATP, 0.1% Triton X100 and 10mg/ml streptavidin coated SPA beads. After 20 min incubation, 110 µL of suspension were withdrawn and transferred into 96-well OPTIPLATEs containing 100 µl of 5M CsCl. After 4 hours, the plates were read for 2 min in a Packard TOP-Count radioactivity reader.
as §3

PAK4 = PAK4 (Homo sapiens, UniProt O96013); test: PAK4 inhibition
Sequence of PAK4 (O96013 whole entry, species assumed): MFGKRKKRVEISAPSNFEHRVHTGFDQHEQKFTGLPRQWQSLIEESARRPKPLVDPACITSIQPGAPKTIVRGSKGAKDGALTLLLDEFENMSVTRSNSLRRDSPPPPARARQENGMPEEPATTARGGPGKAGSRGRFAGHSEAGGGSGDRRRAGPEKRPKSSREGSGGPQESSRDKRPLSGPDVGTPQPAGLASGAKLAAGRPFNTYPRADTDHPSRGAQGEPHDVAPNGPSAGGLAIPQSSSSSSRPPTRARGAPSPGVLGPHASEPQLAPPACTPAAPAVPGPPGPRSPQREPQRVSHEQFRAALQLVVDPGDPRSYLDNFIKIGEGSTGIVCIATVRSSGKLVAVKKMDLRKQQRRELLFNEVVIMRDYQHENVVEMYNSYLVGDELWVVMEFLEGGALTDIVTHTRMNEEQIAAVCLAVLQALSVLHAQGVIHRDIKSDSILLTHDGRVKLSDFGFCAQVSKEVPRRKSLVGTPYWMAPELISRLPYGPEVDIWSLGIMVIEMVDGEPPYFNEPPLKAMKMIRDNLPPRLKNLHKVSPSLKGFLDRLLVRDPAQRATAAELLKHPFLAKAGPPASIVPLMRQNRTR

Row | SMILES | IC50 (Aurora-2) [nM] | IC50 (cdk2/Cyclin A) [nM] | IC50 (PAK4) [nM]
1 | CCCCNC(=O)c1cc2[nH]nc(NC(=O)c3cccs3)c2s1 [Compound 79, N-butyl-3-[(thien-2-ylcarbonyl)amino]-1H-thieno[3,2-c]pyrazole-5-carboxamide] | < 100 | < 500 | 
2 | CN1CCN(c2ccc(C(=O)Nc3n[nH]c4cc(C(=O)NCc5ccc(C(F)(F)F)cc5)sc34)cc2)CC1 [Compound 104, 3-{[4-(4-methylpiperazin-1-yl)benzoyl]amino}-N-[4-(trifluoromethyl)benzyl]-1H-thieno[3,2-c]pyrazole-5-carboxamide] | < 100 |  | 
3 | CCc1cccc(CC)c1NC(=O)c1cc2[nH]nc(NC(=O)c3ccc(N4CCN(C)CC4)cc3)c2s1 [Compound 107, N-(2,6-diethylphenyl)-3-{[4-(4-methylpiperazin-1-yl)benzoyl]amino}-1H-thieno[3,2-c]pyrazole-5-carboxamide] | < 100 |  | 
4 | CN1CCN(c2ccc(C(=O)Nc3n[nH]c4cc(C(=O)NCc5cccc(F)c5)sc34)cc2)CC1 [Compound 94, N-(3-fluorobenzyl)-3-{[4-(4-methylpiperazin-1-yl)benzoyl]amino}-1H-thieno[3,2-c]pyrazole-5-carboxamide] | < 100 |  | 
5 | CCNC(=O)c1cc2[nH]nc(NC(=O)c3ccc(C(C)(C)C)cc3)c2s1 [Compound 66, 3-[(4-tert-butylbenzoyl)amino]-N-ethyl-1H-thieno[3,2-c]pyrazole-5-carboxamide] | < 100 |  | 
6 | CN1CCN(c2ccc(C(=O)Nc3n[nH]c4cc(C(=O)NCc5ccccc5)sc34)cc2)CC1 [Compound 91, N-benzyl-3-{[4-(4-methylpiperazin-1-yl)benzoyl]amino}-1H-thieno[3,2-c]pyrazole-5-carboxamide] |  |  | < 500
7 | Cc1c(C(=O)NCc2ccc(F)cc2)sc2c(NC(=O)c3cccs3)n[nH]c12 [Compound 146, N-(4-fluorobenzyl)-6-methyl-3-[(thien-2-ylcarbonyl)amino]-1H-thieno[3,2-c]pyrazole-5-carboxamide] | < 100 | < 500 | 
8 | CN1CCN(c2ccc(C(=O)Nc3n[nH]c4cc(C(=O)N(C)Cc5ccccc5)sc34)cc2)CC1 [Compound 113, N-benzyl-N-methyl-3-{[4-(4-methylpiperazin-1-yl)benzoyl]amino}-1H-thieno[3,2-c]pyrazole-5-carboxamide] | < 100 |  | 
9 | CCCCNC(=O)c1cc2[nH]nc(NC(=O)C3CC3)c2s1 [Compound 85, N-butyl-3-[(cyclopropylcarbonyl)amino]-1H-thieno[3,2-c]pyrazole-5-carboxamide] |  | < 500 | 
10 | Cc1cccc(Cl)c1CNC(=O)c1cc2[nH]nc(NC(=O)c3ccc(N4CCN(C)CC4)cc3)c2s1 [Compound 122, N-(2-chloro-6-methylbenzyl)-3-{[4-(4-methylpiperazin-1-yl)benzoyl]amino}-1H-thieno[3,2-c]pyrazole-5-carboxamide bis(trifluoroacetate)] | < 100 |  | 
11 | O=C(Nc1n[nH]c2cc(C(=O)O)oc12)c1ccc(F)cc1 [Compound 163, 3-[(4-fluorobenzoyl)amino]-1H-furo[3,2-c]pyrazole-5-carboxylic acid] | < 100 |  | < 500
12 | Cc1cccc(C)c1NC(=O)c1cc2[nH]nc(NC(=O)c3ccc(N4CCN(C)CC4)cc3)c2s1 [Compound 108, N-(2,6-dimethylphenyl)-3-{[4-(4-methylpiperazin-1-yl)benzoyl]amino}-1H-thieno[3,2-c]pyrazole-5-carboxamide] | < 100 |  | 
13 | O=C(Nc1n[nH]c2cc(C(=O)NCc3ccccc3)sc12)c1cc(F)cc(F)c1 [Compound 65, N-benzyl-3-[(3,5-difluorobenzoyl)amino]-1H-thieno[3,2-c]prazole-5-carboxamide] |  | < 500 | 
14 | CN1CCN(C(=O)c2cc3[nH]nc(NC(=O)c4ccc(F)cc4)c3o2)CC1 [Compound 167, 4-fluoro-N-{5-[(4-methylpiperazin-1-yl)carbonyl]-1H-furo[3,2-c]pyrazol-3-yl}benzamide] |  | < 500 | 
15 | Cc1c(C(=O)NCc2ccc(F)cc2)sc2c(NC(=O)c3ccc(F)cc3)n[nH]c12 [Compound 145, 3-[(4-fluorobenzoyl)amino]-N-(4-fluorobenzyl)-6-methyl-1H-thieno[3,2-c]pyrazole-5-carboxamide] |  | < 500 | 
16 | C=CCNC(=O)c1cc2[nH]nc(NC(=O)NCc3ccccc3)c2s1 [Compound 87, N-allyl-3-{[(benzylamino)carbonyl]amino}-1H-thieno[3,2-c]pyrazole-5-carboxamide] |  | < 500 | 
17 | CCCCNC(=O)c1cc2[nH]nc(NC(=O)C3CC3)c2s1 [Compound 86, N-butyl-3-[(cyclopropylcarbonyl)amino]-1H-thieno[3,2-c]pyrazole-5-carboxamide] |  | < 500 | 
18 | CN1CCN(C(=O)c2cc3[nH]nc(NC(=O)c4ccc(F)cc4)c3s2)CC1 [Compound 63, 4-fluoro-N-{5-[(4-methylpiperazin-1-yl)carbonyl]-1H-thieno[3,2-c]pyrazol-3-yl}benzamide] |  | < 500 | 
19 | CCCCNC(=O)c1cc2[nH]nc(NC(=O)CCCC)c2s1 [Compound 84, N-butyl-3-(pentanoylamino)-1H-thieno[3,2-c]pyrazole-5-carboxamide] |  | < 500 | 

Further lines, results first:

Row | IC50 (Aurora-2) [nM] | IC50 (cdk2/Cyclin A) [nM] | IC50 (PAK4) [nM] | SMILES
20 | < 100 |  |  | Cc1cccc(Cl)c1NC(=O)c1cc2[nH]nc(NC(=O)c3ccc(N4CCN(C)CC4)cc3)c2s1 [Compound 109, N-(2-chloro-6-methylphenyl)-3-{[4-(4-methylpiperazin-1-yl)benzoyl]amino}-1H-thieno[3,2-c]pyrazole-5-carboxamide]
21 | < 100 |  |  | CN1CCN(c2ccc(C(=O)Nc3n[nH]c4cc(C(=O)NCc5ccc(Cl)cc5)sc34)cc2)CC1 [Compound 97, N-(4-chlorobenzyl)-3-{[4-(4-methylpiperazin-1-yl)benzoyl]amino}-1H-thieno[3,2-c]pyrazole-5-carboxamide]
22 | < 100 |  | < 500 | CN1CCN(c2ccc(C(=O)Nc3n[nH]c4cc(C(=O)NCc5cccc(Cl)c5)sc34)cc2)CC1 [Compound 96, N-(3-chlorobenzyl)-3-{[4-(4-methylpiperazin-1-yl)benzoyl]amino}-1H-thieno[3,2-c]pyrazole-5-carboxamide]
23 | < 100 |  | < 500 | O=C(Nc1n[nH]c2cc(C(=O)NCc3ccc(F)cc3)sc12)c1ccc(N2CCOCC2)cc1 [Compound 133, N-(4-fluorobenzyl)-3-[(4-morpholin-4-ylbenzoyl)amino]-1H-thieno[3,2-c]pyrazole-5-carboxamide]
24 | < 100 |  |  | CC(NC(=O)c1cc2[nH]nc(NC(=O)c3ccc(N4CCOCC4)cc3)c2s1)c1ccc(Cl)cc1 (centres unmarked) [Compound 130, N-[1-(4-chlorophenyl)ethyl]-3-[(4-morpholin-4-ylbenzoyl)amino]-1H-thieno[3,2-c]pyrazole-5-carboxamide]
25 | < 100 |  |  | O=C(Nc1n[nH]c2cc(C(=O)NCc3ccc(Cl)cc3)sc12)c1ccc(N2CCOCC2)cc1 [Compound 134, N-(4-chlorobenzyl)-3-[(4-morpholin-4-ylbenzoyl)amino]-1H-thieno[3,2-c]pyrazole-5-carboxamide]
26 | < 100 |  |  | C[C@@H](NC(=O)c1cc2[nH]nc(NC(=O)c3ccc(CN4CCOCC4)o3)c2s1)c1ccccc1 [Compound 82, 3-{[5-(morpholin-4-ylmethyl)-2-furoyl]amino}-N-[(1R)-1-phenylethyl]-1H-thieno[3,2-c]pyrazole-5-carboxamide]
27 | < 100 |  | < 500 | O=C(Nc1n[nH]c2cc(C(=O)NCc3cccc(F)c3)sc12)c1ccc(N2CCOCC2)cc1 [Compound 132, N-(3-fluorobenzyl)-3-[(4-morpholin-4-ylbenzoyl)amino]-1H-thieno[3,2-c]pyrazole-5-carboxamide]
28 | < 100 |  |  | O=C(Nc1n[nH]c2cc(C(=O)NC(c3ccccc3)c3ccccc3)sc12)c1ccc(N2CCOCC2)cc1 [Compound 128, N-benzhydryl-3-[(4-morpholin-4-ylbenzoyl)amino]-1H-thieno[3,2-c]pyrazole-5-carboxamide]
29 | < 100 |  |  | CN1CCN(c2ccc(C(=O)Nc3n[nH]c4cc(C(=O)NCc5ccccc5Cl)sc34)cc2)CC1 [Compound 106, N-(2-chlorobenzyl)-3-{[4-(4-methylpiperazin-1-yl)benzoyl]amino}-1H-thieno[3,2-c]pyrazole-5-carboxamide]
